From US20230256058A1 (MAPI PHARMA LTD., priority 2020, published 2023)

Legend:
[1] = cited from earlier work
[2] = Plasma concentrations of liraglutide formulations in db/db mice; assay type: in vivo; details: 200 μg/kg SC daily
Protocol: Treatment Groups: 1. Naïve control normal mice (n=6) • 2. Placebo (vehicle) control db/db mice (n=8) • 3.
• Ad lib fed blood glucose levels were recorded every 3rd day throughout the study period i.e. on Day-1, Day-3, Day-6, Day-9, Day-12, Day-15, Day-18, Day-21, Day-24, and Day-27. […] (before treatment) and 3 hr. post treatment. • On Day-1 and Day-28, blood samples were collected for the measurement of HbA1C levels. • Body weight and feed intake were recorded every day throughout treatment period.

[3] = in vivo; cited from earlier work

Row | Molecule | Steady state therapeutic plasma concentration ([1]; VICTOZA Prescribing Information) | Human range for clinically effective concentrations ([1]; human, Ingwersen S. H. et al. J. Clin. Pharmacol. 2012) | Plasma levels (in words) ([2]; post 3 hr. of injection) | Plasma levels (in words) ([2]; post 24 hr. of treatment) | Pharmacokinetic half-life [3]
1 | CCCCCCCCCCCCCCCC(=O)N[C@@H](CCC(=O)NCCCC[C@H](NC(=O)[C@H](C)NC(=O)[C@H](C)NC(=O)[C@H](CCC(N)=O)NC(=O)CNC(=O)[C@H](CCC(=O)O)NC(=O)[C@H](CC(C)C)NC(=O)[C@H](Cc1ccc(O)cc1)NC(=O)[C@H](CO)NC(=O)[C@H](CO)NC(=O)[C@@H](NC(=O)[C@H](CC(=O)O)NC(=O)[C@H](CO)NC(=O)[C@@H](NC(=O)[C@H](Cc1ccccc1)NC(=O)[C@@H](NC(=O)CNC(=O)[C@H](CCC(=O)O)NC(=O)[C@H](C)NC(=O)[C@@H](N)Cc1cnc[nH]1)[C@@H](C)O)[C@@H](C)O)C(C)C)C(=O)N[C@@H](CCC(=O)O)C(=O)N[C@@H](Cc1ccccc1)C(=O)N[C@H](C(=O)N[C@@H](C)C(=O)N[C@@H](Cc1c[nH]c2ccccc12)C(=O)N[C@@H](CC(C)C)C(=O)N[C@H](C(=O)N[C@@H](CCCNC(=N)N)C(=O)NCC(=O)N[C@@H](CCCNC(=N)N)C(=O)NCC(=O)O)C(C)C)[C@@H](C)CC)C(=O)O [L-API, liraglutide] | about 128 ng/mL | 5 to 45 nmol/L | increase in plasma levels | detectable plasma levels | 
2 | GLP-1 |  |  |  |  | 2 to 5 min
